Measurements reported in patent US11406683B2, “Compounds and therapeutics uses thereof” (Centauri Therapeutics Limited (GB/GB), priority 2017, dated 2022).
Bridge positions count the residues as written; N and C are the ends. Square brackets hold non-standard residues; d marks the D form. Side chains are listed from the residue outwards. Peptide text beside a SMILES is read from it. * marks the point of attachment. X1 = C[C@@H]1OC(OCCCC(=O)NCCNC(=O)COc2cc(OCC(=O)NCCNC(=O)CCCOC3O[C@@H](C)C(O)C(O)[C@@H]3O)cc(-c3cc(OCC(=O)NCCNC(=O)CCCOC4O[C@@H](C)C(O)C(O)[C@@H]4O)cc(C(=O)*)c3)c2)[C@@H](O)C(O)C1O; X3 = C[C@@H]1OC(OCCCC(=O)NCCNC(=O)COc2ccc(-c3cccc(C(=O)*)c3)cc2)[C@@H](O)C(O)C1O; Gly(octyl) = CCCCCCCC[C@H](N)C(=O)O; Nonanoyl = CCCCCCCCC(=O)*; X2 = CC[C@H](C)CCCCC(=O)*; Dab = NCC[C@H](N)C(=O)O; Ahx = NCCCCCC(=O)O

Legend:
[1] = tested on: E. coli K1:O18ac:H7 (ATCC 700973); assay: Flow cytometric complement deposition assay with human serum; assay type: cell-based; details: MFI (APC) over vehicle, 25% pooled human serum, 37° C., 20 min; for C3b deposition (5 μM, Average fold change): 5 μM compound, C3b/iC3b on bacterial surface
Procedure: Flow Cytometric Complement Deposition Assay with Human Serum
The assays were carried out in polystyrene 96-well U bottom plates (Costar). E. coli K1:O18ac:H7 (American Type Culture Collection, ATCC 700973) was grown in LB broth, Miller (Fisher BP1426-500) to late exponential phase. Subsequently, the bacteria were washed in Hank's Balanced Salt Solution with calcium and magnesium (HBSS+/+) and then resuspended in assay buffer, i.e., PBS with 1% bovine serum albumin (BSA, Sigma A2153) at a concentration of 2×10^9 CFU/mL. […] Subsequently, 150 μL ice-cold HBSS+/+ was added, the bacteria were pelleted and then washed once with 200 μL HBSS+/+, prior to adding 100 μL of pooled human serum (Innovate Research IPLA-CSER) as anti-Rhamnose antibody and complement source in PBS, 1% BSA to a final serum concentration of 25%. Bacteria were incubated at 37° C. for 20 min to allow for anti-Rhamnose binding to the compounds and complement deposition. 100 μL ice-cold HBSS+/+ was added to each well to stop the reaction. The bacteria were pelleted by centrifugation at 4° C. and the supernatants discarded. The bacteria were then washed two times with 200 μL refrigerated HBSS+/+, prior to adding 100 μL of APC-labelled anti-human C3b/iC3b antibody (Biolegend 846106; clone 3E7/C3b) at 1:25 dilution in PBS, 1% BSA and incubated at 4° C. for 45 min. After three final washes with 200 μL HBSS+/+, the bacteria were resuspended in HBSS+/+ and their fluorescence profile as an indicator for complement deposition evaluated on a Cytoflex flow cytometer (Beckman Coulter). The median fluorescent intensity (MFI) was recorded in the APC channels. Data from all samples were analysed using Kaluza software (Beckman Coulter).
The fold shift over background was calculated by dividing the MFI obtained in the presence of the Examples (5 μM) by the MFI obtained in the absence of Examples, i.e., in the presence of vehicle. The shift in fluorescence intensity (APC) occurred due to detection of covalently bound complement components C3b/iC3b to the surface of the bacteria.

[2] = tested on: Pseudomonas Aeruginosa PA01 (ATCC 15692); assay: Flow cytometric antibody recruitment assay using an anti-Rhamnose antibody; assay type: cell-based; details: 40 μM substance; MFI (PE) over vehicle control; human anti-Rhamnose IgG polyclonal antibody 42 μg/mL; binding to bacterial surface
Procedure: Flow Cytometric Antibody Recruitment Assay Using an Anti-Rhamnose Antibody
A secondary fluorescently labelled anti-IgG antibody was used to detect the anti-Rhamnose antibody binding.
The assays were carried out in polystyrene 96-well U bottom plates (Costar) blocked with 200 μl of Casein blocking buffer for 1 hour at room temperature (Fisher 37528). Pseudomonas Aeruginosa PA01 (ATCC 15692) was grown in LB broth, Miller (Fisher BP1426-500) to late exponential phase. Subsequently, the bacteria were washed once with Hank's Balanced Salt Solution with calcium and magnesium (HBSS+/+) and then resuspended in HBSS+/+ at a bacterial density of 2×10^9 colony forming units (CFU)/mL. […] The bacteria were then washed three times with 200 μL HBSS+/+, prior to adding 50 μL of the human anti Rhamnose IgG polyclonal antibody at a final concentration of 42 μg/mL in HBSS+/+. The samples were incubated for 1 hour at room temperature shaking at 450 rpm. The bacteria were washed three times as above, prior to adding 100 μL of a PE-labeled anti-human IgG Fc secondary antibody (Biolegend 409304) at 10 μg/mL in HBSS+/+ and incubating at room temperature for 1 hour at 450 rpm. After three final washes with 200 μL HBSS+/+, the bacteria were resuspended in 200 μL HBSS+/+ and evaluated for anti-Rhamnose antibody binding on a Cytoflex flow cytometer (Beckman Coulter). 50,000 counts of bacterial particles were sampled and the median fluorescent shift was recorded in the PE-A channel. Data from all samples were analysed using Kaluza software (Beckman Coulter).
The fold shift over background was calculated by dividing the Median Fluorescent Intensity (MFI) obtained in the presence of 40 μM of the Example compounds by the MFI value obtained in the vehicle controls, i.e., the absence of Examples. The higher the fold shift over background, the more anti-Rhamnose was bound to the bacterial surface. The shift in fluorescence intensity (PE) occurs due to the binding event at each end of the molecule.

Compound	C3b deposition (5 μM, Average fold change) [1]	IgG Recruitment (40 μM, Average fold change) [2]	C3b deposition (Average fold change) ([1]; 20 μM PmxB)
CCCCCCCC[C@H](NC(=O)CCCCCNC(=O)CCCCCNC(=O)c1cccc(-c2ccc(OCC(=O)NCCNC(=O)CCCOC3O[C@@H](C)C(O)C(O)[C@@H]3O)cc2)c1)C(=O)N[C@@H](CCN)C(=O)N[C@H](C(=O)N[C@@H](CCN)C(=O)N[C@H]1CCNC(=O)[C@H]([C@@H](C)O)NC(=O)[C@H](CCN)NC(=O)[C@H](CCN)NC(=O)[C@H](CC(C)C)NC(=O)[C@@H](Cc2ccccc2)NC(=O)[C@H](CCN)NC1=O)[C@@H](C)O (some centres unmarked) [Example 1] ({X3-Ahx-Ahx}-[Gly(octyl)][Dab]T[Dab][Dab][Dab][dF]L[Dab][Dab]T; lactam 5-C)	109.8 fold change	77.7 fold change	–
CC[C@H](C)CCCCC(=O)N[C@@H](CCN)C(=O)N[C@H](C(=O)N[C@@H](CCN)C(=O)N[C@H]1CCNC(=O)[C@H]([C@@H](C)O)NC(=O)[C@H](CCN)NC(=O)[C@H](CCN)NC(=O)[C@H](CC(C)C)NC(=O)[C@@H](Cc2ccccc2)NC(=O)[C@H](CCN)NC1=O)[C@@H](C)O [Polymyxin B, reference compound] (X2-[Dab]T[Dab][Dab][Dab][dF]L[Dab][Dab]T; lactam 4-C)	–	1.58 fold change	24.535 fold change
CCCCCCCC[C@H](NC(=O)CCCCCNC(=O)CCCCCNC(=O)c1cc(OCC(=O)NCCNC(=O)CCCOC2O[C@@H](C)C(O)C(O)[C@@H]2O)cc(-c2cc(OCC(=O)NCCNC(=O)CCCOC3O[C@@H](C)C(O)C(O)[C@@H]3O)cc(OCC(=O)NCCNC(=O)CCCOC3O[C@@H](C)C(O)C(O)[C@@H]3O)c2)c1)C(=O)N[C@@H](CCN)C(=O)N[C@H](C(=O)N[C@@H](CCN)C(=O)N[C@H]1CCNC(=O)[C@H]([C@@H](C)O)NC(=O)[C@H](CCN)NC(=O)[C@H](CCN)NC(=O)[C@H](CC(C)C)NC(=O)[C@@H](Cc2ccccc2)NC(=O)[C@H](CCN)NC1=O)[C@@H](C)O (some centres unmarked) [Example 2] ({X1-Ahx-Ahx}-[Gly(octyl)][Dab]T[Dab][Dab][Dab][dF]L[Dab][Dab]T; lactam 5-C)	148.1 fold change	3.4 fold change	–
CCCCCCCCC(=O)N[C@@H](CCNC(=O)CCCCCNC(=O)CCCCCNC(=O)c1cccc(-c2ccc(OCC(=O)NCCNC(=O)CCCOC3O[C@@H](C)C(O)C(O)[C@@H]3O)cc2)c1)C(=O)N[C@H](C(=O)N[C@@H](CCN)C(=O)N[C@H]1CCNC(=O)[C@H]([C@@H](C)O)NC(=O)[C@H](CCN)NC(=O)[C@H](CCN)NC(=O)[C@H](CC(C)C)NC(=O)[C@@H](Cc2ccccc2)NC(=O)[C@H](CCN)NC1=O)[C@@H](C)O (stereo partly drawn) [Example 5] (Nonanoyl-[Dab]([Ahx-Ahx-X3])T[Dab][Dab][Dab][dF]L[Dab][Dab]T; lactam 4-C)	20.5 fold change	8.45 fold change	–
